Measurements published in patent US20220280578A1, “METHOD FOR TREATING ALZHEIMER'S DISEASE BY REGULATING INTESTINAL MICROORGANISMS” (SHANGHAI GREEN VALLEY PHARMACEUTICAL CO., LTD., priority 2019, published 2022).
Entries after “also recorded” stand apart in the source; their conditions may differ.

Assays:
SLC7A5 = biological target: T1, SLC7A5 (Mus musculus, UniProt Q9Z127); test: Uptake of 13C-labelled phenylalanine by CD4+ T cells; assay type: cell-based; conditions: 0.5 h incubation
T1 construct: endogenous in cells; host or cells: Primary naive CD4+ T cells from splenocytes of C57BL/6 mice, used as Th0 cells and IL-12-induced Th1 cells
T1 sequence (Q9Z127 whole entry): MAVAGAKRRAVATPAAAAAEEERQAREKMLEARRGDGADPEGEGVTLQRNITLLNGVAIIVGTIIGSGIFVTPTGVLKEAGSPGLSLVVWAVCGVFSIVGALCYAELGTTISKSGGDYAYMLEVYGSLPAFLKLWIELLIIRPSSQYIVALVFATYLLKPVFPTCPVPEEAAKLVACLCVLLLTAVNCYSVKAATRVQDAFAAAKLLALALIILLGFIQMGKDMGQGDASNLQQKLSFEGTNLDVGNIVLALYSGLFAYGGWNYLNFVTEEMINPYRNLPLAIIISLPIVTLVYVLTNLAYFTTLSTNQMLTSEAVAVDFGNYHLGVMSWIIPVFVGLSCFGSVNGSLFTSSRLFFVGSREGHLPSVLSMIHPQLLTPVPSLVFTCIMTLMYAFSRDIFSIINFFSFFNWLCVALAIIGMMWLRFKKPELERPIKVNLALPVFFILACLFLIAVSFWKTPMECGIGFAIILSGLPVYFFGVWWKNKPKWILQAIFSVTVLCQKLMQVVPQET
T1 sequence (P10852 whole entry partner): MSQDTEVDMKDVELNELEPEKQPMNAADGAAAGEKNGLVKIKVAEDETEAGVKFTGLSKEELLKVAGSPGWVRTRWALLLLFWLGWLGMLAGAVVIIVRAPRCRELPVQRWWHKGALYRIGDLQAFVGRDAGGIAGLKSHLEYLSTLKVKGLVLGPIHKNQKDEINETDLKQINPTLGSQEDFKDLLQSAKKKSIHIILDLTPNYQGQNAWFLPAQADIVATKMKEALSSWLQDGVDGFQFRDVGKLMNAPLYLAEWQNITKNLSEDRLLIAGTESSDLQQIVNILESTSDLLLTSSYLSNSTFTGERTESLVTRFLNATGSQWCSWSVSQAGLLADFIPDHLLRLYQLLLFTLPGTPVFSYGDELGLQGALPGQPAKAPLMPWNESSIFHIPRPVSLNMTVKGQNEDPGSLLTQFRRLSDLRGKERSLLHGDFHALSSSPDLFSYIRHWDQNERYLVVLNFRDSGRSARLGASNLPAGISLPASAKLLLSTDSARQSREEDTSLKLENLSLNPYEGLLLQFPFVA
Description: Uptake of phenylalanine. Naive CD4^+ T cells were separated from the is splenocytes of 8-month-old C57BL/6 female mice using the Naive CD4^+ T cell Isolation Kit (Stem Cell, Cat No. 19765) and were induced to Th1 differentiation by 20 ng/mL IL-12. After 3 days, a total of 5×10^5 cells/well Th1 cells and Th0 cells in 0.5 mL of RPMI-1640 medium were plated into 48-well plates. ^13C-labelled phenylalanine and 5 mM amino transporter inhibitor BCH were added into indicated wells. After 0.5 h, cells were collected and washed twice with ice-cold D-PBS. 50 μL deionized water was added and cells were lysed through freezing and thawing twice at −80° C. The cell lysate was centrifuged at 12000×g for 10 min and ^13C-labelled phenylalanine in the supernatant was analyzed by Mass spectrometry.

5XFAD mice = test: JPH 203 in 5XFAD mice, Th1 cells in the brain by flow cytometry; assay type: in vivo, mouse; conditions: 6-month-old 5XFAD mice, 50 mg/kg intraperitoneal every day for one month, vs vehicle
Description: Flow cytometry sample preparation and analysis. Mice were anesthetized, blood samples were collected into EDTA-containing tubes, and red blood cells were removed using 1×red blood lysis buffer. Before tissue is collection, the brains were perfused with ice-cold PBS to avoid sampling the circulating blood immune cells, and the brains were removed, chopped into pieces and dissected according to the introduction of the Adult Brain Dissociation Kit (Miltenyi, Cat No. 130-107-677) using the gentleMACS dissociator (Miltenyi Biotec). The brain homogenate was filtered through a 70-μm cell strainer and centrifuged at 300×g for 5 min at 4° C. […] All samples were counted and adjusted to a density of 2-3 ×10^6/100 μL, labeled with a Live/Dead kit for 30 min, and then centrifuged at 500×g for 3 min at 4° C. […] Relevant negative control, Fluorescence Minus One (FMO) control and each fluorescence compensation sample were used to adjust fluorescence compensation and identify the populations of interest. Cells were acquired on a BD Aria III cytometer, and data were analyzed using FlowJo software.
Amino acids could be taken by immune cells through specific transporters. […] One month after the administration, the mice were euthanized, and the proportion of pro-inflammatory Th 1 cells in the brains of the mice in the control group and the JPH 203 treatment group was analyzed by flow cytometry. […]

naive CD4+ T cells = test: In vitro differentiation and proliferation induced by phenylalanine and isoleucine; assay type: cell-based, mouse; conditions: amino acid added directly to naive CD4+ T cell culture; for Th1 cell proliferation: CellTrace
Description: In Vitro differentiation and proliferation induced by phenylalanine and isoleucine. Naive CD4^+ T cells were separated from the splenocytes of 8-month-old C57BL/6 female mice using the Naive CD4^+ T cell Isolation Kit (Stem Cell, #19765), and the cells were stained with CellTrace (Thermo Fisher, #C34557). A total of 1×10^5 cells/well in 0.2 mL of RPMI-1640 medium were plated in 96-well plates, and the culture medium was supplemented with cytokines or blocking antibodies. Th0: 10 ng/mL mIL-2; Th1:10 ng/mL mIL-2, 5000 ng/mL 11B11. Phenylalanine (final concentration, 2 mmol/L), isoleucine (final concentration, 2 mmol/L) and OM1 (final concentration, 100 μg/mL) were added into the indicated wells, respectively. After incubation at 37° C. in 5% CO2 for 5 days, cells were acquired on a BD Fortessa cytometer, and data were analyzed using FlowJo software.

WT mice (C57) = test: Intraperitoneal injection of phenylalanine and isoleucine, blood Th1 cells; assay type: in vivo, mouse; conditions: intraperitoneal injection 50 mg/kg for 4 days

SMILES	uptake of 13C-labelled phenylalanine by CD4+ T cells (SLC7A5)	proportion of pro-inflammatory Th1 cells in the mouse brain (5XFAD mice; 50 mg/kg)	proportion of pro-inflammatory Th1 cells in the mouse brain (5XFAD mice; listed as JPH 203, 50 mg/kg)	Th0 cell differentiation into Th1 cells (naive CD4+ T cells)	Th1 cell proliferation (naive CD4+ T cells)	Th1 cell count in the blood (WT mice (C57))
Nc1cc(COc2c(Cl)cc(C[C@H](N)C(=O)O)cc2Cl)c2oc(-c3ccccc3)nc2c1 [JPH203]	blocked	effectively inhibits; also recorded: significantly downregulated	significantly reduces			
CC[C@H](C)[C@H](N)C(=O)O [isoleucine]				increased	increased	increased significantly
N[C@@H](Cc1ccccc1)C(=O)O [phenylalanine]				increased	increased	increased significantly
